Values quoted from earlier work, collected in Sander's compilation of Henry's law constants (doi:10.1080/01483918608076621).

Assay: Henry solubility constant Hcp at 298.15 K (mol/(m3 Pa))
Details: reference: Janini and Quaddora (1986); cited value

Row | Henry solubility constant Hcp | Compound
1 | 6.1 | Cc1cccc(O)c1 [1-hydroxy-3-methylbenzene]
2 | 5.2 | Cc1ccc(O)cc1 [1-hydroxy-4-methylbenzene]
3 | 0.35 | CCCCCC(C)=O [2-heptanone]
4 | 0.091 | CCCC(C)=O [2-pentanone]
5 | 0.029 | CC(=O)OC(C)C [2-propyl ethanoate]
6 | 0.2 | CCC(=O)CC [3-pentanone]
7 | 0.054 | CCCC=O [butanal]
8 | 0.047 | CCOC(C)=O [ethyl ethanoate]
9 | 0.044 | CCCOC(C)=O [propyl ethanoate]

Row | Compound | Henry solubility constant Hcp
10 | Cc1ccccc1O [1-hydroxy-2-methylbenzene] | 2.6
11 | CCCCOC(C)=O [butyl ethanoate] | 0.035
12 | CC(C)=O [propanone] | 0.03
